In US20050238580A1 (priority 2002, published 2005):

Key:
intestinal lactase [1] = target: T1, intestinal lactase (Rattus norvegicus, UniProt Q02401); assay: Excretion of xylose in urine after oral 4-galactosyl-xylose versus intestinal lactase activity in unweaned rats; type: in vivo
T1 construct: hydrolysis of the 4-galactosyl-xylose administered is detected by the action of intestinal lactase; from tissue; host or cells: small-intestinal mucous membrane of living unweaned rats (in vivo); activity also measured post mortem in mucosa homogenate
T1 sequence (Q02401 868-1928): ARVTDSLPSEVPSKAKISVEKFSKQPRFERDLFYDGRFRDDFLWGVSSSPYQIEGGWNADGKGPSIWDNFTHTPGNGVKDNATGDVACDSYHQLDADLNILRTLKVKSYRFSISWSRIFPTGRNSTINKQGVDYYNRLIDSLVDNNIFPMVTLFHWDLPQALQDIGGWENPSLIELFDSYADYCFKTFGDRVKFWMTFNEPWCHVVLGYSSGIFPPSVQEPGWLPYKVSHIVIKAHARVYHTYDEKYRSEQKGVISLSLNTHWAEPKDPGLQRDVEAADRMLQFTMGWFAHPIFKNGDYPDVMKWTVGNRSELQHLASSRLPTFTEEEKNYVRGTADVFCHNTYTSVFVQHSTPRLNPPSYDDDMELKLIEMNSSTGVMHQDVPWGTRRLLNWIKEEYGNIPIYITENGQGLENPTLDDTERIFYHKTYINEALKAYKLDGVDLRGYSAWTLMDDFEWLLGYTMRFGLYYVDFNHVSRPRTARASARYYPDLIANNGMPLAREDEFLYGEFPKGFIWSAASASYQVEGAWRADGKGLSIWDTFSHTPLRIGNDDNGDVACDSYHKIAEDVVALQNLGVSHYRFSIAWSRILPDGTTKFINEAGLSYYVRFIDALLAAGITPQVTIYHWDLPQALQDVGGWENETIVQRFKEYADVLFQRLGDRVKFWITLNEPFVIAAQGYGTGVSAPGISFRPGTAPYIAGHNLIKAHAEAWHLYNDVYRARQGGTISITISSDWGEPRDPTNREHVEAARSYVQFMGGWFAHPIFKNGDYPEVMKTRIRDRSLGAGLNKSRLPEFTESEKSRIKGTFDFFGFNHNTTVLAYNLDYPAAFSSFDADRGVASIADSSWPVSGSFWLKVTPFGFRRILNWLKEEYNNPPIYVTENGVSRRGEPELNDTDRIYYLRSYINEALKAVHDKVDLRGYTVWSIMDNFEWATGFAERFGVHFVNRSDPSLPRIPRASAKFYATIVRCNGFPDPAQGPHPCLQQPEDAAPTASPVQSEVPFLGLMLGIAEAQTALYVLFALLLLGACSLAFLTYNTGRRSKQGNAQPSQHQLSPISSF
From the text: Correlation between the excretion of xylose in urine and the presence of xylose in blood after oral administration of 4-galactosyl-xylose with intestinal lactase activity. This has been shown in unweaned rats comparing during the growth of these animals, the excretion of xylose in urine after orally administering to them 4-galactosyl-xylose, with lactase activity evaluated postmortem in the intestinal mucous membrane, which is known to physiologically reduce during growth. For this purpose, a group comprised of 20 12-day old unweaned rats belonging to two litters fasted for 6 hours by being separated from the mother. […] Immediately after the urine has been collected, four of the animals were sacrificed and the lactase activity in the intestinal mucous membrane was directly evaluated. […] The lactase activity in the homogenized product was measured spectrophotometrically. […] Therein one can see: 1) That the presence of xylose in urine coming from the hydrolysis of the 4-galactosyl-xylose administered is detected by the action of intestinal lactase; 2) That the rate of excretion of xylose in urine caused by oral administration of 4-galactosyl-xylose during the growth of the animals, runs parallel to the known physiological modification of intestinal lactase activity that reduces during growth. […]

intestinal lactase [2] = target: T2, intestinal lactase (Homo sapiens, UniProt P09848); assay: Xylose in blood plasma of human volunteers after oral 4-galactosyl-xylose, colorimetric titration with fluoroglucinol; type: in vivo
T2 construct: from tissue; host or cells: small-intestinal mucous membrane of living adult human volunteers (in vivo)
T2 sequence (P09848 869-1927): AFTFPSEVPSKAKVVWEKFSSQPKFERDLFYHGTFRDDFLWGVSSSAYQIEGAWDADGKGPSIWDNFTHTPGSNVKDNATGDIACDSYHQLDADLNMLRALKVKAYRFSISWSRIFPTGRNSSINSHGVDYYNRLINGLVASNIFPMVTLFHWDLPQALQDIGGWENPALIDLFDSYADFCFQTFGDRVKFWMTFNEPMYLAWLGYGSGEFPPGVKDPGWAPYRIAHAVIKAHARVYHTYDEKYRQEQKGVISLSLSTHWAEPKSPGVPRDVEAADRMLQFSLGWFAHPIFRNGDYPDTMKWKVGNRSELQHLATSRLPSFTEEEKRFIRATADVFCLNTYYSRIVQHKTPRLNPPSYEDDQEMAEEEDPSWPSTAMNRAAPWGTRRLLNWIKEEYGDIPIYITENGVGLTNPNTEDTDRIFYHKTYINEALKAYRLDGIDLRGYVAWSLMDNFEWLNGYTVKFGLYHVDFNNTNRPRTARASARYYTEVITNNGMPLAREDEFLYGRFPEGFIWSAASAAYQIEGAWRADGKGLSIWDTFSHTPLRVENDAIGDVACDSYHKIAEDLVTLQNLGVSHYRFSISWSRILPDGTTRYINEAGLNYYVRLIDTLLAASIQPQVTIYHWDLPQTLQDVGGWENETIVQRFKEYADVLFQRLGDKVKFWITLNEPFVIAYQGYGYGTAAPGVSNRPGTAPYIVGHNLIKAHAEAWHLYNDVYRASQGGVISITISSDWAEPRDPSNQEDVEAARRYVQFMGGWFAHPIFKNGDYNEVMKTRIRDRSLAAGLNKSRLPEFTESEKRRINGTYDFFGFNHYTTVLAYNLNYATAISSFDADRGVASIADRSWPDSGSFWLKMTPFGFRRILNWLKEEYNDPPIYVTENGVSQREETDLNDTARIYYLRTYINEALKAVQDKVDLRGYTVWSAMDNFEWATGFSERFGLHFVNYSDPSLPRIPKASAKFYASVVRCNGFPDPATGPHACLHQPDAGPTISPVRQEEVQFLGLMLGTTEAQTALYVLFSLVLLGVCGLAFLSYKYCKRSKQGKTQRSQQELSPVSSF
Experimental: Oral administration of 3 g of 4-galactosyl-xylose to adult human volunteers with lactose tolerance gave rise to the gradual presence of xylose in blood plasma titrated calorimetrically with fluoroglucinol, that reached a maximum about 2 hours after the intake of the disaccharide. Oral administration of the same amount of 4-galactosyl-xylose to an adult human volunteer with lactose intolerance diagnosed as hypolactasic produced a significant reduction in the amount of xylose evaluated in blood plasma of this individual two hours after the intake of the disaccharide.
The evaluation of xylose in blood after the oral administration of 4-galactosyl-xylose permits non-invasive diagnosis of intestinal lactase deficiency. This has been shown by administering 3 g of 4-galactosyl-xylose to two volunteers with lactose tolerance [individual 1, Example 17 and individual 2, Example 18 (these individuals were also studied in Examples 3 to 6)] and to the hypolactasic individual 12 with lactose intolerance [Example 19 (this individual was also studied in examples 12 and 15]). Xylose was titrated colorimetrically with fluoroglucinol in blood plasma of blood samples obtained from these individuals prior to the intake of the disaccharide and after the intake thereof at approximately 1 hour intervals for 6 hours: in the hypolactasic individual a basal blood sample and another blood sample 2 hours after the intake of the 4-galactosyl-xylose disaccharide were taken. […] In view of the amount of xylose detected in the individual with lactose intolerance 2 hours after the intake of 4-galactosyl-xylose, 0.48 μg/100 μl of plasma and the sensitivity of the titration (minimum detection limit of xylose with fluoroglucinol of […]), the minimum volume of serum or plasma to reliably make the measurement is estimated to be 50 μl, which is equivalent to 0.2 ml of blood (2 to 3 drops).

linear correlation coefficient (r) between excretion of xylose in urine and intestinal lactase activity (intestinal lactase [1]; unweaned rats aged 12 to 35 days, 4 mg oral, urine of 6 hours, lactase evaluated postmortem in intestinal mucous membrane): 0.96
reduction of xylose in plasma, individual 12 versus individual 1 (intestinal lactase [2]; 3 g oral, 2 hours): 72%
reduction of xylose in plasma, individual 12 versus individual 2 (intestinal lactase [2]; 3 g oral, 2 hours): 75%
xylose in blood plasma 2 hours after intake (intestinal lactase [2]; hypolactasic individual 12, 3 g oral): 0.48 μg/100 μl of plasma
SMILES: OCC1O[C@@H](O[C@@H]2COC(O)C(O)[C@H]2O)C(O)[C@@H](O)[C@H]1O (some centres unmarked)
dose dependence of excretion of xylose in urine (intestinal lactase [1]; unweaned rats, oral doses from 2 to 32 mg in 0.3 ml of water): increases with the increase of the amount of 4-galactosyl-xylose administered
xylose in blood plasma in a similar period of time (2 hours) (intestinal lactase [2]; individual 1 with lactose tolerance, 3 g oral): 1.72 μg/100 ml of plasma
xylose in blood plasma in a similar period of time (2 hours) (intestinal lactase [2]; individual 2 with lactose tolerance, 3 g oral): 1.95 μg/100 ml of plasma
xylose in blood plasma after 6 hours (intestinal lactase [2]; individuals 1 and 2 with lactose tolerance, 3 g oral): undetectable
